Several values for one entry are separate records, joined by “and”; a condition that tells them apart may be missing. Identical values can stand only once.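 Cultured in 96-well plates, cells were exposed to test compound for 48 hours across five concentrations. At the GI50, growth is halved. TGI denotes the concentration required for complete inhibition of growth.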
Columns and labels:
Assay in all cases: NCI-60 cell line screen, 48 h
OVCAR-8 ovarian = tested on: OVCAR-8 ovarian
KM20L2 colon = tested on: KM20L2 colon
KM12 colon = tested on: KM12 colon
HCC-2998 colon = tested on: HCC-2998 colon
OVCAR-4 ovarian = tested on: OVCAR-4 ovarian
SR leukemia = tested on: SR leukemia
UACC-62 melanoma = tested on: UACC-62 melanoma
DMS 273 small cell lung = tested on: DMS 273 small cell lung
MDA-N = tested on: MDA-N
HS 578T breast = tested on: HS 578T breast
BT-549 breast = tested on: BT-549 breast

Structure (SMILES)	TGI (OVCAR-8 ovarian)	TGI (KM20L2 colon) [µM]	TGI (KM12 colon)	TGI (HCC-2998 colon) [µM]	TGI (OVCAR-4 ovarian)	TGI (SR leukemia) [µM]	TGI (UACC-62 melanoma)	TGI (DMS 273 small cell lung)	GI50 (HCC-2998 colon) [nM]	GI50 (SR leukemia) [nM]	GI50 (DMS 273 small cell lung) [nM]	TGI (MDA-N) [µM]	GI50 (HS 578T breast) [µM]	TGI (HS 578T breast) [µM]	TGI (BT-549 breast) [µM]	GI50 (OVCAR-8 ovarian) [µM]	GI50 (KM20L2 colon) [µM]	GI50 (KM12 colon) [nM]
COc1ccc(-c2nnc(-c3c(C)n(C)n(-c4ccccc4)c3=O)o2)cc1	> 100 µM	> 100	> 100 µM	> 100	> 100 µM	> 100	> 100 µM	> 100 µM	–	–	–	–	–	–	–	–	–	–
C/C(=N\NC(=O)c1cccnc1)c1cccc(/C(C)=N/NC(=O)c2cccnc2)n1.CC(=O)[O-].CC(=O)[O-].[Zn+2]	> 39.4 µM	> 100	> 100 µM	> 100	> 100 µM	10.8	10.7 µM	98.1 µM	995	793	2150	–	–	–	–	–	–	–
CC(C)N1CCC2(CC1)NNc1ncccc1-n1cccc12	> 100 µM	–	> 100 µM	> 100	> 100 µM	–	–	> 100 µM	–	–	–	–	–	–	–	–	–	–
O=[N+]([O-])c1ccc2nc(/C=C(\O)c3ccccc3)c(/C=C(\O)c3ccccc3)nc2c1	42 µM	–	> 100 µM	> 100	32.5 µM	> 94.9	18.8 µM	–	–	–	–	> 100	6.83	48.6	62.1	–	–	–
c1ccc(CCN2CCN=C2Cc2ccccc2)cc1	> 100 µM	–	> 100 µM	38.2	> 100 µM	> 100	> 100 µM	–	–	–	–	> 100	–	> 100	> 100	–	–	–
C[C@H](CN1CC(=O)NC(=O)C1)N1CC(=O)NC(=O)C1	> 100 µM	> 100	> 100 µM	> 100	> 100 µM	–	> 100 µM	> 100 µM	–	–	–	–	–	–	–	–	–	–
O=C(NC12CC3CC(CC(C3)C1)C2)C(=O)c1c[nH]c2ccc([N+](=O)[O-])cc12	> 100 µM	> 100	> 100 µM	> 100	54.4 µM	> 100	> 77.1 µM	45 µM	–	–	–	–	–	–	–	–	–	–
CC1C2CC(CC2N)C1(C)C (stereo not drawn)	> 100 µM	–	> 100 µM	> 100	> 100 µM	> 100	> 100 µM	–	–	–	–	> 100	–	> 100	> 100	–	–	–
CSC1(SC)N2Cc3ccccc3N=C2C1(c1ccccc1)c1ccccc1	> 79.6 µM	–	> 35.6 µM	23.2	> 100 µM	9.36	> 55.3 µM	–	–	–	–	> 96.7	–	> 82.5	> 92.6	–	–	–
Nc1nn(CC(O)CO)c(=O)s1 (stereo not drawn)	> 100 µM	> 100	–	> 100	> 100 µM	> 100	> 100 µM	> 100 µM	–	–	–	–	–	–	–	–	–	–
NNC(=O)CCC(NS(=O)(=O)c1ccc(Cl)cc1)C(=O)NN (stereo not drawn)	> 100 µM	–	> 100 µM	> 100	> 100 µM	> 100	> 100 µM	–	–	–	–	> 100	–	> 100	> 100	–	–	–
Cn1c(N=[N+]=[N-])cc(=O)n(C)c1=O	> 100 µM	–	> 100 µM	> 100	> 100 µM	> 100	> 100 µM	–	–	–	–	> 100	–	> 100	> 100	–	–	–
CN(C)CCCNc1cnc2cc3ccccc3cc2n1	59.4 µM	–	47.4 µM	35.1	91.4 µM	> 100	30 µM	–	–	–	–	> 100	–	> 100	58.9	–	–	–
COc1ccc2oc(=Nc3ccc(F)cc3)c(C(N)=O)cc2c1	> 100 µM	–	> 100 µM	> 100	> 100 µM	> 100	> 100 µM	–	–	–	–	> 100	–	> 100	> 100	–	–	–
COc1ccc(N2C(N)=C(C#N)C(C#N)(C#N)C2c2cccc([N+](=O)[O-])c2)cc1 (stereo not drawn)	32.8 µM	–	33.9 µM	31.8	32 µM	> 66	30.1 µM	–	–	–	–	31.5	–	54.6	32.3	–	–	–
CCOC(=O)C1C[C@H]2CO[C@H](c3ccccc3)N2C1=O (stereo partly drawn)	> 100 µM	–	> 100 µM	> 100	> 100 µM	> 100	> 100 µM	–	–	–	–	> 100	–	> 100	> 100	–	–	–
CCCCC1(N=[N+]=[N-])C(=O)C2C=CC=C3c4ccccc4N(C1=O)C32 (stereo not drawn)	> 31.6 µM	–	> 31.6 µM	> 31.6	> 31.6 µM	> 10	> 31.6 µM	–	–	–	–	> 31.6	–	26	> 31.6	–	–	–
COC(=O)C(Cc1ccccc1)NC(=O)c1ccc(CNC(=S)NCc2cccc(CNC(=S)NCc3ccccc3)c2)cc1 (stereo not drawn)	> 62.5 µM	–	> 62.5 µM	> 62.5	> 62.5 µM	> 62.5	> 62.5 µM	–	–	–	–	> 62.5	–	> 62.5	> 62.5	–	–	–
CCCCNC(=S)c1ccc(OC(=O)Nc2ccc(Cl)cc2)cc1	> 100 µM	–	> 100 µM	> 100	> 100 µM	> 100	93.6 µM	–	–	–	–	> 100	–	> 100	> 100	–	–	–
CCCC(=O)Nc1cc(/C=C/C(=O)N2CC(CCl)c3c2cc([N+](=O)[O-])c2ccccc32)n(C)c1 (stereo not drawn)	> 100 µM	–	> 82.6 µM	> 100	> 100 µM	> 100	> 100 µM	–	–	–	–	> 100	–	> 100	> 100	–	–	–
O=C1C2=C(CCCCC2)C2CCCCC12O (stereo not drawn)	> 100 µM	> 100	> 100 µM	> 100	–	> 100	> 100 µM	> 100 µM	–	–	–	–	–	–	–	–	–	–
C=C1C(=O)O[C@@H]2OC3(C)CCC4C(C)CCC1C42OO3 (stereo partly drawn)	16.2 µM and 11.7 µM	24.1	9.02 µM and 16.4 µM	25.9	32.4 µM and 26 µM	–	6.86 µM and 5.17 µM	14.2 µM and 13.2 µM	–	–	–	–	–	–	–	3.47	11.1	2660
CO[C@H]1C[C@H](n2cc(C)c(=O)[nH]c2=O)O[C@@H]1CO	> 100 µM	–	> 100 µM	> 100	> 100 µM	> 100	> 100 µM	–	–	–	–	> 100	–	> 100	> 100	–	–	–
CCOC(=O)Cn1nnc2cc(Nc3nc4ccccc4nc3C(=O)OCC)ccc21	> 100 µM	–	> 100 µM	> 100	> 100 µM	> 100	> 100 µM	–	–	–	–	> 100	–	> 100	> 100	–	–	–
COc1cc2cc3c4c(cc(OC)c(OC)c4c2cc1OC)CCN3C(=O)N(C)C	> 100 µM	> 100	> 100 µM	> 100	> 100 µM	> 100	> 100 µM	> 100 µM	–	–	–	–	–	–	–	–	–	–
CN(C)CCNC(=O)c1cccc2[nH]c(-c3ccncc3)nc12	> 40.2 µM	–	> 35.7 µM	4.34	> 100 µM	> 100	10.8 µM	–	–	–	–	3.27	–	29.6	34.8	–	–	–
O=C(Cc1ccccc1)N=Nc1c(O)[nH]c2ccccc12	> 100 µM	–	> 100 µM	> 100	> 100 µM	> 100	> 100 µM	–	–	–	–	> 100	–	> 100	> 100	–	–	–
COC(=O)[C@@]12OC[C@]34C([C@@H](O)C1O)[C@@]1(C)CC(=O)C(O)=C(C)C1C[C@H]3OC(=O)[C@H](OC(=O)/C=C(/c1ccccc1)C(F)(F)F)[C@H]42 (stereo partly drawn)	> 25 µM	14	> 25 µM	8.04	> 25 µM	2.28	7.31 µM	4.87 µM	–	–	–	–	–	–	–	–	–	–
CCCCCCCC(=O)OCC(C[As](=O)(O)O)OC(=O)CCCCCCC (stereo not drawn)	30.3 µM	30.7	–	31.7	34 µM	60.8	27 µM	27.4 µM	–	–	–	–	–	–	–	–	–	–
CCCCCC(O)(CCCCC)CCCCCCCCC1=C(O)c2ccccc2C(=O)C1=O	33 µM	–	19.4 µM	30.5	> 48.8 µM	13.9	21.1 µM	–	–	–	–	31.3	–	54.5	39.6	–	–	–

— PubChem BioAssay (NCI)
